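Tested at 5 concentrations; 48 h exposure; 96-well plates; endpoints linearly interpolated, else capped at highest concentration. TGI: total growth inhibition.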
Legend:
Assay in all cases: DTP human tumour cell line panel, 48 h
SR leukemia = system: SR leukemia
TK-10 renal = system: TK-10 renal
786-0 renal = system: 786-0 renal
SNB-75 CNS = system: SNB-75 CNS
CAKI-1 renal = system: CAKI-1 renal
UACC-62 melanoma = system: UACC-62 melanoma
SN12C renal = system: SN12C renal
HL-60(TB) leukemia = system: HL-60(TB) leukemia
HT29 colon = system: HT29 colon
RXF 393 renal = system: RXF 393 renal
HOP-62 NSCLC = system: HOP-62 NSCLC
SK-MEL-2 melanoma = system: SK-MEL-2 melanoma
A498 renal = system: A498 renal
IGROV1 ovarian = system: IGROV1 ovarian
NCI-H460 lung = system: NCI-H460 lung
SF-268 CNS = system: SF-268 CNS
K-562 leukemia = system: K-562 leukemia
M14 melanoma = system: M14 melanoma
OVCAR-8 ovarian = system: OVCAR-8 ovarian
CCRF-CEM leukemia = system: CCRF-CEM leukemia
NCI-H23 lung = system: NCI-H23 lung
UO-31 renal = system: UO-31 renal
SF-539 CNS = system: SF-539 CNS
KM12 colon = system: KM12 colon
SNB-19 CNS = system: SNB-19 CNS
OVCAR-3 ovarian = system: OVCAR-3 ovarian
UACC-257 melanoma = system: UACC-257 melanoma
HCT-15 colon = system: HCT-15 colon
U251 CNS = system: U251 CNS
BT-549 breast = system: BT-549 breast
MOLT-4 leukemia = system: MOLT-4 leukemia
NCI/ADR-RES ovarian = system: NCI/ADR-RES ovarian
MDA-MB-231 breast = system: MDA-MB-231 breast
HS 578T breast = system: HS 578T breast
NCI-H226 lung = system: NCI-H226 lung
HCT-116 colon = system: HCT-116 colon
MCF7 breast = system: MCF7 breast
SF-295 CNS = system: SF-295 CNS
SK-OV-3 ovarian = system: SK-OV-3 ovarian
LOX IMVI melanoma = system: LOX IMVI melanoma
ACHN renal = system: ACHN renal
MALME-3M melanoma = system: MALME-3M melanoma
EKVX NSCLC = system: EKVX NSCLC
MDA-N = system: MDA-N
RPMI-8226 leukemia = system: RPMI-8226 leukemia
OVCAR-5 ovarian = system: OVCAR-5 ovarian
SW-620 colon = system: SW-620 colon
PC-3 prostate = system: PC-3 prostate
SK-MEL-28 melanoma = system: SK-MEL-28 melanoma
NCI-H522 lung = system: NCI-H522 lung
MDA-MB-435 = system: MDA-MB-435
DU-145 prostate = system: DU-145 prostate
HOP-92 NSCLC = system: HOP-92 NSCLC
HCC-2998 colon = system: HCC-2998 colon
SK-MEL-5 melanoma = system: SK-MEL-5 melanoma
OVCAR-4 ovarian = system: OVCAR-4 ovarian
A549 NSCLC = system: A549 NSCLC
COLO 205 colon = system: COLO 205 colon

## Oc1ccc2c(c1)c1c(n2CCN2CCOCC2)-c2ccccc2CC1
SR leukemia
  TGI: 91.5 µM
TK-10 renal
  TGI: 77.9 µM
786-0 renal
  TGI: > 100 µM
SNB-75 CNS
  TGI: 76.3 µM
CAKI-1 renal
  TGI: > 100 µM
UACC-62 melanoma
  TGI: 48.1 µM
SN12C renal
  TGI: 95.9 µM
HL-60(TB) leukemia
  TGI: > 100 µM
HT29 colon
  TGI: 45.8 µM
RXF 393 renal
  TGI: 75.7 µM
HOP-62 NSCLC
  TGI: 59.2 µM
SK-MEL-2 melanoma
  TGI: 55.1 µM
A498 renal
  TGI: 52.6 µM
IGROV1 ovarian
  TGI: 57.6 µM
NCI-H460 lung
  TGI: 44.2 µM
SF-268 CNS
  TGI: > 100 µM
K-562 leukemia
  TGI: > 100 µM
M14 melanoma
  TGI: 57.3 µM
OVCAR-8 ovarian
  TGI: > 100 µM
CCRF-CEM leukemia
  TGI: > 100 µM
NCI-H23 lung
  TGI: 82.1 µM
UO-31 renal
  TGI: > 100 µM
SF-539 CNS
  TGI: 44.9 µM
KM12 colon
  TGI: 35.8 µM
SNB-19 CNS
  TGI: > 100 µM
OVCAR-3 ovarian
  TGI: 49.5 µM
UACC-257 melanoma
  TGI: > 100 µM
HCT-15 colon
  TGI: 66.1 µM
U251 CNS
  TGI: > 100 µM
BT-549 breast
  TGI: > 100 µM
MOLT-4 leukemia
  TGI: > 100 µM
NCI/ADR-RES ovarian
  TGI: 74.2 µM
MDA-MB-231 breast
  TGI: 80 µM
HS 578T breast
  TGI: 56.9 µM
NCI-H226 lung
  TGI: 85.6 µM
HCT-116 colon
  TGI: > 100 µM
MCF7 breast
  TGI: > 100 µM
SF-295 CNS
  TGI: > 100 µM
SK-OV-3 ovarian
  TGI: > 100 µM
LOX IMVI melanoma
  TGI: 57.8 µM
ACHN renal
  TGI: > 100 µM
MALME-3M melanoma
  TGI: 53.2 µM
EKVX NSCLC
  TGI: 92.5 µM
MDA-N
  TGI: > 100 µM
RPMI-8226 leukemia
  TGI: > 100 µM
OVCAR-5 ovarian
  TGI: 60.5 µM
SW-620 colon
  TGI: > 100 µM
PC-3 prostate
  TGI: > 100 µM
SK-MEL-28 melanoma
  TGI: 55.6 µM

## O=C1CCCCC1CN1CCCCC1 (stereo not given)
SR leukemia
  TGI: > 100 µM
NCI-H522 lung
  TGI: 4.42 µM
TK-10 renal
  TGI: > 100 µM
786-0 renal
  TGI: > 100 µM
SNB-75 CNS
  TGI: > 100 µM
MDA-MB-435
  TGI: > 100 µM
CAKI-1 renal
  TGI: > 100 µM
UACC-62 melanoma
  TGI: > 100 µM
SN12C renal
  TGI: > 100 µM
HL-60(TB) leukemia
  TGI: > 100 µM
HT29 colon
  TGI: > 100 µM
RXF 393 renal
  TGI: > 100 µM
HOP-62 NSCLC
  TGI: > 100 µM
SK-MEL-2 melanoma
  TGI: > 100 µM
A498 renal
  TGI: > 100 µM
IGROV1 ovarian
  TGI: > 100 µM
DU-145 prostate
  TGI: > 100 µM
NCI-H460 lung
  TGI: > 100 µM
SF-268 CNS
  TGI: > 100 µM
K-562 leukemia
  TGI: > 100 µM
M14 melanoma
  TGI: > 100 µM
OVCAR-8 ovarian
  TGI: > 100 µM
CCRF-CEM leukemia
  TGI: > 100 µM
HOP-92 NSCLC
  TGI: > 100 µM
NCI-H23 lung
  TGI: > 100 µM
UO-31 renal
  TGI: > 100 µM
HCC-2998 colon
  TGI: > 100 µM
SF-539 CNS
  TGI: > 100 µM
KM12 colon
  TGI: > 100 µM
SNB-19 CNS
  TGI: > 100 µM
OVCAR-3 ovarian
  TGI: > 100 µM
HCT-15 colon
  TGI: > 100 µM
U251 CNS
  TGI: > 100 µM
BT-549 breast
  TGI: > 100 µM
MOLT-4 leukemia
  TGI: > 100 µM
SK-MEL-5 melanoma
  TGI: > 100 µM
NCI/ADR-RES ovarian
  TGI: > 100 µM
MDA-MB-231 breast
  TGI: > 100 µM
HS 578T breast
  TGI: > 100 µM
NCI-H226 lung
  TGI: > 100 µM
HCT-116 colon
  TGI: > 100 µM
MCF7 breast
  TGI: > 100 µM
SF-295 CNS
  TGI: > 100 µM
SK-OV-3 ovarian
  TGI: > 100 µM
LOX IMVI melanoma
  TGI: > 100 µM
ACHN renal
  TGI: > 100 µM
MALME-3M melanoma
  TGI: > 100 µM
EKVX NSCLC
  TGI: > 100 µM
MDA-N
  TGI: > 100 µM
OVCAR-5 ovarian
  TGI: > 100 µM
SW-620 colon
  TGI: > 100 µM
OVCAR-4 ovarian
  TGI: > 100 µM
A549 NSCLC
  TGI: > 100 µM
PC-3 prostate
  TGI: > 100 µM
SK-MEL-28 melanoma
  TGI: > 100 µM
COLO 205 colon
  TGI: > 100 µM

From PubChem BioAssay (NCI)
